These results are taken from patent publication US20240366679A1, “METHOD FOR TREATING IMMUNE DISEASES USING CALCINEURIN INHIBITOR AND STEM CELLS” (KANGSTEM BIOTECH CO., LTD., priority 2021, published 2024).

For series [1], the system named is hUCB-MSC. Kind of series: MTT assay, cell viability of hUCB-MSC. The following applies: pimecrolimus various concentrations, 3 days, FIG. 2A. The format is cell-based. How it is done: First, the stem cells (hUCB-MSC) were cultured and treated with various concentrations of pimecrolimus for 3 days, and then the change in cell viability of hUCB-MSC were compared using the MTT assay (FIG. 2A).
Background: Tetrazolium dyes change colour on reduction, which living cells bring about.

The subject of series [2] is hUCB-MSC. Kind of series: Proliferative capacity of hUCB-MSC. The format is cell-based. The following applies: pimecrolimus 0.01 to 100 ng/ml, 3 days; FIG. 2B. How it is done: Next, the stem cells (hUCB-MSC) were cultured and treated with various concentrations of pimecrolimus for 3 days, and then the change in proliferative capacity of hUCB-MSC were compared (FIG. 2B).

The test system of series [3] is hUCB-MSC. The series can be described thus: Cell cycle analysis of hUCB-MSC. The format is cell-based. To be noted: pimecrolimus 0.01 to 100 ng/ml, 3 days; FIG. 2C. How it is done: Next, the stem cells (hUCB-MSC) were cultured and treated with various concentrations of pimecrolimus for 3 days, and then the change in cell cycle profile of hUCB-MSC were compared using cell cycle analysis (FIG. 2C).

Series [4] concerns hUCB-MSC. The series can be described thus: Cellular morphology of hUCB-MSC. The format is cell-based. To be noted: pimecrolimus 0.01 to 100 ng/ml, 3 days; FIG. 2D. How it is done:
Next, the stem cells (hUCB-MSC) were cultured and treated with various concentrations of pimecrolimus for 3 days, and then the change in cellular morphology of hUCB-MSC were compared (FIG. 2D).

Series [5] has as its system hUCB-MSC surface markers (CD45, CD34, CD36, CD105, CD29, CD73). Kind of series: Flow cytometry of surface markers of hUCB-MSC. To be noted: pimecrolimus 100 ng/ml, 3 days, FIG. 2E. The format is cell-based. How it is done:
Lastly, the stem cells (hUCB-MSC) were cultured and treated with 100 ng/ml of pimecrolimus for 3 days, and then the expression levels of surface markers (CD45, CD34, CD36, CD105, CD29, CD73) of hUCB-MSC were compared using flow cytometry. (FIG. 2E).
(Flow cytometry measures light scatter and fluorescence of single cells or particles in a stream.)

Series [6] concerns PBMC cells treated with Concanavalin A (ConA). The series can be described thus: MLR analysis, immunosuppressive activity on ConA-treated PBMC. The format is cell-based. How it is done: PBMC cells treated with Concanavalin A (ConA) were cultured and treated with pimecrolimus and mesenchymal stem cells (hUCB-MSC) individually or in combination, and then the immunosuppressive activity measured in each experimental group was compared (FIG. 3). In particular, PBMC cells that were not treated with ConA, not co-cultured with hUCB-MSC, and not treated with pimecrolimus were used as the negative control (NC), and as the positive control (PC) treated with ConA, PBMC cells that were not co-cultured with hUCB-MSC and not treated with pimecrolimus were used as the positive control (PC).
Specifically, PBMC cells treated with Concanavalin A (ConA) were cultured and treated with pimecrolimus and hUCB-MSC individually or in combination, and then the immunosuppressive activity measured in each experimental group was compared.
In particular, 10 experimental groups were set according to the combination pattern of pimecrolimus and hUCB-MSC (Table 1)

Series [7] concerns TGF-β expressed in hUCB-MSCs. The series can be described thus: TGF-β ELISA of hUCB-MSC supernatant. The format is cell-based, human. To be noted: pimecrolimus 0.01 to 100 ng/ml, 72 hours, FIG. 4A. How it is done:
(§1) Specifically, hUCB-MSCs were seeded in a 6-well cell culture plate at a density of 1.5×10^5 cells per well. After 24 hours of incubation, hUCB-MSCs were treated with pimecrolimus at various concentrations and further incubated for 72 hours. After the incubation was completed, the supernatant was collected by centrifugation and the thus-obtained supernatant was applied to Human […] Quantikine ELISA (R&D Systems, Minneapolis, MN, USA) and Human PGE2. Quantikine ELISA (R&D Systems) to analyze the expression level of TGF-β or prostaglandin E2 (PGE2) (FIGS. 4A and 4B).

Series [8] relates to PGE2 expressed in hUCB-MSCs. The series can be described thus: PGE2 ELISA of hUCB-MSC supernatant. The format is cell-based, human. To be noted: pimecrolimus 0.01 to 100 ng/ml, 72 hours, FIG. 4B. How it is done: as §1
The test system of series [9] is COX2 expressed in hUCB-MSCs. The series can be described thus: Western blot of COX2 in hUCB-MSC lysate. The format is cell-based. The following applies: pimecrolimus 0.01 to 100 ng/ml, 72 hours, GAPDH internal control, FIG. 4C. How it is done:
hUCB-MSCs treated with pimecrolimus were obtained according to the method of Example 3-2, centrifuged to collect the precipitated cells, and then disrupted to obtain cell lysate. Subsequently, Western blot analysis was performed using the thus-obtained cell lysate and COX2 antibodies (FIG. 4C). In particular, GAPDH was used as an internal control.

Entries after “also recorded” stand apart in the source; their conditions may differ.

Regarding `CC[C@@H]1/C=C(\C)C[C@H](C)C[C@H](OC)[C@H]2O[C@@](O)(C(=O)C(=O)N3CCCC[C@H]3C(=O)O[C@H](/C(C)=C/[C@@H]3CC[C@H](Cl)[C@H](OC)C3)[C@H](C)[C@@H](O)CC1=O)[C@H](C)C[C@@H]2OC` [pimecrolimus], in series [1], the “change in cell viability of hUCB-MSC” value is reported as “did not change the cell viability”. The “change in proliferative capacity of hUCB-MSC” value in series [2] is given as “did not change the proliferative capacity”. Besides, in [3], the “change in cell cycle profile of hUCB-MSC” value is “did not change the cell cycle profile”. Moreover, the “change in cellular morphology of hUCB-MSC” value in [4] is reported as “did not change the cellular morphology”. Moreover, the “expression levels of surface markers of hUCB-MSC” value in [5] is reported as “did not change the expression levels of surface markers”. For the same compound, the “immune activity of ConA-treated PBMC (immunosuppressive activity)” value in [6] (Example 3-1, treated individually or in combination, versus ConA positive control, FIG. 3) is “the immune activity was suppressed”. In [6] (each treated alone, 3 to 7 days or 5 to 7 days (Experimental Groups 2 and 3; 5 and 9), FIG. 5A), the “immunosuppressive activity, separate treatment” value was “comparatively superior over the immunosuppressive activity of hUCB-MSCs”. Besides, in series [7], the “level of TGF-β expressed in hUCB-MSCs” value is reported as “did not show a significant change”. Moreover, in series [8], the “level of PGE2 expressed in hUCB-MSCs” value is “rapidly reduced in proportion to the treatment concentrations”. Further, the “level of COX2 expressed in hUCB-MSCs” value in [9] is reported as “rapidly reduced in proportion to the treatment concentrations; also recorded: inhibit the expression of COX2”.
